Assay results taken from ChEMBL document CHEMBL1201862, “PubChem BioAssay data set” (2004).
Where “and” joins values, the source holds several entries; their conditions need not be identical. Identical values can stand only once. Calls of active or inactive are those of the source.

Columns and labels:
Cytochrome P450 1A2 = target: T1, Cytochrome P450 1A2 (Homo sapiens, UniProt P05177);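 also: PubChem cytochrome P450 panel assay, CYP1A2 panel member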
T1 sequence (P05177 whole entry): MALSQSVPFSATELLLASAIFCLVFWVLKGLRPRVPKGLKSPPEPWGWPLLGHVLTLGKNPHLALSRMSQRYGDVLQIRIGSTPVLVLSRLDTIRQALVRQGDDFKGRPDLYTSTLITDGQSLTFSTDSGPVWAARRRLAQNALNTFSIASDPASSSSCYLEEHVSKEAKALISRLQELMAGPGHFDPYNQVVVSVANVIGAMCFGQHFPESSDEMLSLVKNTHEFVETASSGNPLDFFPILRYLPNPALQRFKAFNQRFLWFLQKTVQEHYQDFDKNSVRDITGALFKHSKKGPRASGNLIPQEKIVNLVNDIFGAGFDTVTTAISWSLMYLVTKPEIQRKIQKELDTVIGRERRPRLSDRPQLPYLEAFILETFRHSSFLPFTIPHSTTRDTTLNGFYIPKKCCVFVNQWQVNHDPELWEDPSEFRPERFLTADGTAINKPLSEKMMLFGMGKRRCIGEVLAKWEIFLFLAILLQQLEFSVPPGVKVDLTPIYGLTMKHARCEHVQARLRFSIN

Cytochrome P450 3A4 = Cytochrome P450 3A4 (Homo sapiens, UniProt P08684);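 also: CYP3A4 tested as one member of a cytochrome P450 panel screen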
Sequence of Cytochrome P450 3A4 (P08684 whole entry): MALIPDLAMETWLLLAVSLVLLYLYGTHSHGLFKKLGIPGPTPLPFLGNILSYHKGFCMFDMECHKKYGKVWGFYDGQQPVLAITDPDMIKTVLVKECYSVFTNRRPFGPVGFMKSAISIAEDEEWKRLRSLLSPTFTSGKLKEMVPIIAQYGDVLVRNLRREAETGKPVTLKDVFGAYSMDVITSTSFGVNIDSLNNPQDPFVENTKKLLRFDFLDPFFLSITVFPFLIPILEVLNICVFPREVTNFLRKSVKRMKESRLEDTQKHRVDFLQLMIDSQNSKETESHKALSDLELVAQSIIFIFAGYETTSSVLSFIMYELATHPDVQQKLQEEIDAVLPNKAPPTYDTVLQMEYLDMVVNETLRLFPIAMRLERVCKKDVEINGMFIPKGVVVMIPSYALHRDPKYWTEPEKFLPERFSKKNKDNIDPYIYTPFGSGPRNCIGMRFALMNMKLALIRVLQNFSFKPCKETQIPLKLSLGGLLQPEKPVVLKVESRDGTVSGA

Cytochrome P450 2C9 = Cytochrome P450 2C9 (Homo sapiens, UniProt P11712)
Sequence of Cytochrome P450 2C9 (P11712 whole entry): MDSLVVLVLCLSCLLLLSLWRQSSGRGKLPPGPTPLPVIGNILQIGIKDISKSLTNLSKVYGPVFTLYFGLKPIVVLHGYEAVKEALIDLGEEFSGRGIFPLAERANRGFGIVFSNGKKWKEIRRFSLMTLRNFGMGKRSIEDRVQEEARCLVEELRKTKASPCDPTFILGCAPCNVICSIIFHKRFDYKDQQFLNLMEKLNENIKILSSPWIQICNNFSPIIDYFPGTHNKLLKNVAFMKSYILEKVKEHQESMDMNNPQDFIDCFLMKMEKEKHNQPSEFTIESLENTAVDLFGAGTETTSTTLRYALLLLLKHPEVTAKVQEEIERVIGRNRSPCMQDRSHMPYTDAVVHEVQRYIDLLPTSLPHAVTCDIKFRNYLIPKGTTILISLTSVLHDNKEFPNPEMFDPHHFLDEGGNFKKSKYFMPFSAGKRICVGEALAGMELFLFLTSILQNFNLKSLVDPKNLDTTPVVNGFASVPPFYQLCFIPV

[1] = target: T2, Corticotropin-releasing factor receptor 2/Corticotropin-releasing factor-binding protein (Homo sapiens, UniProt P24387+Q13324); test: activators of CRF receptor 2 with binding protein – uHTS hits, confirmation (AID 602473); format: functional; details: read-out: EC50_Mean
T2 sequence (Q13324 whole entry): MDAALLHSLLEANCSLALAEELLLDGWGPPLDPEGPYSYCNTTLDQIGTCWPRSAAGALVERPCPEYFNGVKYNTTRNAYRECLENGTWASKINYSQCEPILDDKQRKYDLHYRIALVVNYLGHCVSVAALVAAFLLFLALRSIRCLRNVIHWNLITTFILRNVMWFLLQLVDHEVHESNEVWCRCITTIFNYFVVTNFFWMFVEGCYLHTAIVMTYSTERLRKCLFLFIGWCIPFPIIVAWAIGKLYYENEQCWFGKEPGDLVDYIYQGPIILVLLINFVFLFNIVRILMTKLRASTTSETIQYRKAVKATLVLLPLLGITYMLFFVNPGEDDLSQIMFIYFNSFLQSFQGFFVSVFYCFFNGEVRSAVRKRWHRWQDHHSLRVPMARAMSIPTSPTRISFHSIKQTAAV
T2 sequence (P24387 whole entry): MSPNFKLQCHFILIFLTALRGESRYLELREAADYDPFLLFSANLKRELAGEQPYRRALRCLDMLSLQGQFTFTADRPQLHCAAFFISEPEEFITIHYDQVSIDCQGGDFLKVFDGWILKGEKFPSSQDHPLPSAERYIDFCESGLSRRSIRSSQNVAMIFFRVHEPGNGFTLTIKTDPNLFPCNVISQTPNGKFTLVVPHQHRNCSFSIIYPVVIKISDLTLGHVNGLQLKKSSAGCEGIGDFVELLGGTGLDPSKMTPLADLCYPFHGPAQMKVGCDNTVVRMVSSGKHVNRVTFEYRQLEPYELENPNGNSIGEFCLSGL

Cytochrome P450 2C19 = Cytochrome P450 2C19 (Homo sapiens, UniProt P33261); test: Cytochrome panel assay with activity outcomes. Panel member name: p450-cyp2c19 Compounds with AC50 equal or less than 10 uM are considered active; format: functional
Sequence of Cytochrome P450 2C19 (P33261 whole entry): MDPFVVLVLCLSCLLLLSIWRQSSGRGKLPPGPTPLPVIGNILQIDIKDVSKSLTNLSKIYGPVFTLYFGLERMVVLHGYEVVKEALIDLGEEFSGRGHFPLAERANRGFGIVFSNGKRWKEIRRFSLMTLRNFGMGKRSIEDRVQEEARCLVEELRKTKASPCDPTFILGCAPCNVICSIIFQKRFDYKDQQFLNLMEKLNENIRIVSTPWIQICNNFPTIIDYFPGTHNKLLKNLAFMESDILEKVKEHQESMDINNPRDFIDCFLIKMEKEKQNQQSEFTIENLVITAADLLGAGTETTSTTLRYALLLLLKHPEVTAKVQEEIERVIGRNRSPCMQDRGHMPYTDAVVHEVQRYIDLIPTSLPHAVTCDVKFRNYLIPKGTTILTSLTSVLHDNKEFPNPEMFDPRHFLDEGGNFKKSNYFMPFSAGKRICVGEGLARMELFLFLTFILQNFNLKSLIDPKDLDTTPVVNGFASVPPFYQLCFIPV

[2] = Luminescence Cell-Based Dose Retest to Confirm Inhibitors of Cancer Stem Cells. [Related pubchem assays (depositor defined):AID2717, AID2721]; format: functional; details: Homo sapiens
[3] = system: Streptococcus sp. 'group A'; test: Streptococcus pyogenes SK(-)GAS viability under kanamycin – luminescence, BacTiterGlo, confirmation, counter-screen for streptokinase expression inhibitor project, dose response (AID 1900); format: functional, organism-based
Streptococcus = test: GAS UMAA2166 growth inhibition – luminescence, BacTiterGlo, counter-screen for streptokinase expression inhibitor project, dose response (AID 1915); format: functional, organism-based;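 also: potency for reduction of bacterial viability or growth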
[4] = Trypanosoma cruzi growth suppression in host cells – NIH3T3 host cells, beta-gal luminescence, confirmation (AID 2044); format: functional, cell-based;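 also: intracellular parasites grown in NIH/3T3 mouse fibroblasts as host cells; luminescent beta-galactosidase reporter signal from transgenic T. cruzi replicating inside host cells; inhibitors lower the luminescence signal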
[5] = NIH3T3 cell viability loss – ATP luminescence, mouse fibroblasts, counter-screen, dose response (AID 2010); format: functional, cell-based;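 also: cells exposed to compound for about 90 hours before reading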

| Compound | AC50 (Cytochrome P450 1A2) | AC50 (Cytochrome P450 3A4) | AC50 (Cytochrome P450 2C9) | further results |
| --- | --- | --- | --- | --- |
| CC(C)(C)NC[C@@H](O)COc1cccc2[nH]c(C#N)cc12 | 31.6 µM (inconclusive) |  |  |  |
| COc1cccc(Cn2c(=O)c(-c3cccs3)nc3cnc(OCc4ccccc4)nc32)c1 | 1.58 µM (inconclusive) | 7.94 µM (inconclusive) | 0.631 µM (inconclusive) |  |
| O=C(NCc1ccc(OC(F)(F)F)cc1)c1cccc2c1C(=O)c1ccc(N3CCC(Cc4ccccc4)CC3)cc1S2(=O)=O |  |  |  | EC50 [1]: 8.45 µM (active) |
| CN(C)CCCN1c2ccccc2Sc2cnccc21 | 0.501 µM (inconclusive) |  |  |  |
| O=c1c(-c2cc(F)cc(F)c2)nc2cncnc2n1-c1ccccc1 |  |  | 10 µM (inconclusive) | AC50 (Cytochrome P450 2C19; read-out: AC50): 6.31 µM (inconclusive) |
| N[C@@H](Cn1oc(=O)[nH]c1=O)C(=O)O [QUISQUALATE] | 39.8 µM (inconclusive) | 1 µM (inconclusive) |  |  |
| CCCc1nnc(NC(=O)C(CC)OC(=O)c2cc(C)nc3ccccc23)s1 (centres undefined) | 15.8 µM (inconclusive) |  |  | AC50 (Cytochrome P450 2C19; read-out: AC50): 15.8 µM (inconclusive) |
| COC(=O)CSc1ccc(C#N)c(SCC(=O)OC)c1 |  |  | 20 µM (inconclusive) |  |
| COC(=O)N1CC(=O)N(OC)C1c1ccc(Cl)cc1Cl (centres undefined) |  |  | 0.316 µM (inconclusive) |  |
| CN1CCN(c2ncncc2-c2ccccc2Cl)CC1 | 2.51 µM (inconclusive) |  |  |  |
| CCCc1[nH]c2ccc(C#N)cc2c1CCC |  |  |  | AC50 [2]: 4.21 µM (active) |
| c1ccc(CNc2ncncc2-c2ccoc2)cc1 |  |  | 0.501 µM (inconclusive) |  |
| CCCCCCCCCCCCN1[C@@H](CC(C)=O)c2cc(F)ccc2S1(=O)=O |  |  |  | AC50 [2]: 5.3 µM (active) |
| Cc1c(-c2cccc(Cl)c2)nc2ccccc2c1C(=O)OC/C(O)=C(\C#N)c1nc2ccccc2[nH]1 |  |  |  | EC50 [3]: 2.23 µM (active); EC50 (Streptococcus): 2.6 µM (active); AC50 [2]: 1.75 µM (active) |
| CCOc1nc(NC(C)C)nc(NC(C)C)n1 | 5.01 µM (inconclusive) |  |  |  |
| CCc1c(C2(O)CCCCC2)[nH]c2c(C(=O)OC)cc(Cl)cc12 |  |  |  | EC50 [3]: 2.62 µM (active); EC50 (Streptococcus): 5.96 µM (active); AC50 [2]: 1.89 µM (active) |

| Compound | AC50 (Cytochrome P450 1A2) | AC50 (Cytochrome P450 3A4) | AC50 (Cytochrome P450 2C9) | further results |
| --- | --- | --- | --- | --- |
| CCOC(=O)c1[nH]c(C)c(C)c1C |  |  | 1.12 µM (inconclusive) | AC50 (Cytochrome P450 2C19; read-out: AC50): 17.8 µM (inconclusive) |
| O=C(c1ccc(C#CC2(O)CCCCC2)cc1)N1CCN(C(c2ccccc2)c2ccccc2)CC1 |  |  |  | AC50 [2]: 0.482 µM (active) |
| CCOC(=O)c1c(NC(=O)Nc2ccccc2)sc(C)c1C |  | 25.1 µM (inconclusive) |  |  |
| Cc1cc(C)cc(Oc2nn[nH]n2)c1 |  |  | 7.08 µM (inconclusive) |  |
| C/C(=N\NC(=O)C1CC1c1ccccc1)c1cccs1 (centres undefined) | 15.8 µM (inconclusive) | 8.91 µM (inconclusive) | 11.2 µM (inconclusive) | AC50 (Cytochrome P450 2C19; read-out: AC50): 2.24 µM (inconclusive) |
| COc1ccccc1N1CCN(C[C@@H](O)COc2cccc3ccccc23)CC1 | 12.6 µM (inconclusive) and 31.6 µM (inconclusive) and 20 µM (inconclusive) |  |  |  |
| Cc1cc(C)n(C(=O)c2cc3c(s2)CCCC3)n1 |  | 39.8 µM (inconclusive) |  | AC50 (Cytochrome P450 2C19; read-out: AC50): 2.24 µM (inconclusive) |
| COc1cc(OC)cc(-c2sc3ccc(OC)cc3c2C#CCCO)c1 |  |  |  | AC50 [2]: 4 µM (active) |
| Cn1c(=O)n(C)c2cc(/C=N/NC(=O)c3ccc(Cl)cc3Cl)ccc21 | 14.1 µM (inconclusive) | 0.0398 µM (inconclusive) | 39.8 µM (inconclusive) |  |
| COc1cccc(-c2sc3ccc(OC)cc3c2-c2ccc(O)cc2)c1 |  |  |  | AC50 [2]: 2.67 µM (active) |
| COC(=O)c1c(NC(=O)Cn2cc([N+](=O)[O-])cn2)sc2c1CCC2 |  |  | 3.55 µM (inconclusive) | AC50 (Cytochrome P450 2C19; read-out: AC50): 3.16 µM (inconclusive) |
| Cc1cccc(-n2cc(CN(C)Cc3nccn3C)c(-c3cccc(F)c3)n2)c1 |  |  |  | EC50 [4]: 1.79 µM (active); EC50 [5]: 11.8 µM (active); AC50 [2]: 13.5 µM (active) |
| Cc1nonc1NCn1nnc2ccccc21 | 8.91 µM (inconclusive) |  | 5.01 µM (inconclusive) | AC50 (Cytochrome P450 2C19; read-out: AC50): 14.1 µM (inconclusive) |
| CCn1c(-c2ccccc2)cnc1S |  |  |  | EC50 [3]: > 150 µM (not active); EC50 (Streptococcus): > 150 µM (not active) |
| CN(C)CCCNC(=O)CCc1nc(O)c2ccccc2n1 |  |  | 1 µM (inconclusive) | AC50 (Cytochrome P450 2C19; read-out: AC50): 7.08 µM (inconclusive) |
| COc1ccc(-c2nc3cnc(OC)nc3n(C3CC3)c2=O)cc1 |  | 0.0501 µM (inconclusive) |  |  |

Continued, in another order:

| AC50 (Cytochrome P450 1A2) | AC50 (Cytochrome P450 3A4) | AC50 (Cytochrome P450 2C9) | Compound | further results |
| --- | --- | --- | --- | --- |
|  | 31.6 µM (inconclusive) |  | COc1ccccc1-c1nc(N2CCN(C)CC2)c2ccccc2n1 |  |
|  | 1.41 µM (inconclusive) | 17.8 µM (inconclusive) | Cc1cc(NC(=O)CCC(=O)N(CC2CCCO2)C(C(=O)NC2CCCC2)c2cccnc2)no1 (centres undefined) |  |
| 39.8 µM (inconclusive) |  |  | Cc1ccc(C2C(=O)N(C3CCCC3)CC(=O)N2CC2COc3ccccc3O2)cc1 (centres undefined) |  |
|  |  | 2 µM (inconclusive) | Cc1cccc(OC(=O)CN2C(=O)C3C4CCC(C4)C3C2=O)c1C (centres undefined) |  |
|  | 39.8 µM (inconclusive) | 2.24 µM (inconclusive) | Cc1nn(C(=O)c2ccco2)c(C)c1Sc1ccccc1 |  |
|  | 31.6 µM (inconclusive) |  | COc1cccc(Cn2c(=O)c(-c3ccccc3)nc3cnc(N4CCN(C)CC4)nc32)c1 |  |
|  | 5.01 µM (inconclusive) |  | CO[C@@H]1COC(=O)C/C=C\[C@@H](C)[C@H](OC)COC(=O)[C@H](COCc2ccccc2)NC(=O)C/C=C\[C@H]1C | AC50 (Cytochrome P450 2C19; read-out: AC50): 2 µM (inconclusive) |
|  | 20 µM (inconclusive) |  | CN1CCN(c2nc(-c3ccoc3)nc3ccccc23)CC1 |  |
| 3.16 µM (inconclusive) | 3.16 µM (inconclusive) |  | COc1ccc(-n2c(=O)c(CCc3ccccc3)nc3cnc(N(C)C)nc32)cc1 |  |
|  | 15.8 µM (inconclusive) |  | Fc1ccc(CSc2nnc(-c3cc4c(s3)-c3ccccc3CC4)o2)cc1 | AC50 (Cytochrome P450 2C19): inconclusive |
|  |  | 15.8 µM (inconclusive) | CC1(C)CCCN(C(=O)N2c3ccccc3Sc3ccccc32)C1 |  |
|  |  | 20 µM (inconclusive) | CCn1c(C)nc2cc(C(=O)NNS(=O)(=O)c3ccccc3F)ccc21 |  |
|  | 20 µM (inconclusive) |  | COc1ccccc1CN1CCCC2(CCN(C(=O)c3cccn3C)CC2)C1 |  |
| 17.8 µM (inconclusive) |  |  | Cc1cc(C)c(S(=O)(=O)NCC2CCC(C(=O)NCc3ccc4c(c3)OCO4)CC2)c(C)c1 (centres undefined) |  |
| 0.794 µM (inconclusive) |  | 11.2 µM (inconclusive) | Cc1ccc2c(c1)-c1c(cnn1CC(=O)O)CO2 |  |
|  | 2.82 µM (inconclusive) |  | CCn1c2ccccc2c2cc(/N=C3/SC(CC(=O)Nc4ccccc4OC)C(=O)N3C)ccc21 (centres undefined) |  |
| 0.398 µM (inconclusive) | 15.8 µM (inconclusive) |  | O=C(CCN1CCc2ccccc2C1)Nc1ccc(F)cc1 |  |
